From patent publication US5093359A, “Primycin components and process for the separation of the antibiotic complex” (priority 1984, dated 1992)
≈ marks a conversion by molar mass, not a printed value. Like-named read-outs stand apart in the source and are kept apart here.

Legend:
[1] = tested on: Staphylococcus aureus CCM.885.; test: MIC, strain 1; type: cell-based; conditions: read-out: MIC
[2] = tested on: Staphylococcus aureus DSM.20231; test: MIC, strain 2; type: cell-based
[3] = tested on: Staphylococcus aureus CCM.2317.; test: MIC, strain 3; type: cell-based; conditions: read-out: MIC
[4] = tested on: Staphylococcus aureus CCM.2326.; test: MIC, strain 4; type: cell-based; conditions: read-out: MIC
[5] = tested on: Staphylococcus aureus CCM.2514; test: MIC, strain 5; type: cell-based; conditions: read-out: MIC
[6] = tested on: Staphylococcus aureus CCM.2515.; test: MIC, strain 6; type: cell-based; conditions: read-out: MIC
[7] = tested on: Staphylococcus epidermidis CCM.2271; test: MIC, strain 7; type: cell-based; conditions: read-out: MIC
[8] = tested on: Staphylococcus aureus Smith; test: MIC, strain 8; type: cell-based; conditions: read-out: MIC
[9] = tested on: Streptococcus faecalis CCM.1875.; test: MIC, strain 9; type: cell-based; conditions: Enterococcus faecalis, read-out: MIC
[10] = tested on: Streptococcus agalactiae CCM.5153.; test: MIC, strain 10; type: cell-based; conditions: read-out: MIC
[11] = tested on: Streptococcus agalactiae CCM.5534.; test: MIC, strain 11; type: cell-based
[12] = tested on: Streptococcus disgalactiae ATTC.9926; test: MIC, strain 12; type: cell-based
[13] = tested on: Bacillus subtilis ATTC.6633.; test: MIC, strain 13; type: cell-based; conditions: read-out: MIC
[14] = tested on: Bacillus cereus CCM.2010.; test: MIC, strain 14; type: cell-based; conditions: read-out: MIC
[15] = tested on: Bacillus licheniformis CCM.2182.; test: MIC, strain 15; type: cell-based; conditions: read-out: MIC
[16] = tested on: Bacillus licheniformis CCM.2205.; test: MIC, strain 16; type: cell-based; conditions: read-out: MIC
[17] = tested on: Bacillus subtilis CCM.1718.; test: MIC, strain 17; type: cell-based; conditions: 24 h, strain 17, Table O, 24 hours, read-out: MIC
[18] = tested on: Listeria monocytogenes CCM.5576.; test: MIC, strain 18; type: cell-based; conditions: read-out: MIC
[19] = tested on: Micrococcus flavus ATCC.10240.; test: MIC, strain 19; type: cell-based; conditions: read-out: MIC
[20] = tested on: Micrococcus luteus DSM.20030.; test: MIC, strain 20; type: cell-based; conditions: read-out: MIC
[21] = tested on: Sporosarcina ureae DSM.317; test: MIC, strain 21; conditions: DSM.317, 24 h
Procedure: (§1) The antimicrobial activity of the primycin complex and the components thereof is tested on different microorganism strains.
(§2) (Inoculation: 5 × 10^5 /ml, incubation at 37 C.° for

[22] = tested on: Pseudomonas aeruginosa CCM.1960.; test: MIC, strain 22; conditions: 24 h
Procedure: as §1, §2

[23] = tested on: Pseudomonas fluorescens CCM.2115.; test: MIC, strain 23; conditions: 24 h
Procedure: as §1, §2

[24] = tested on: Pseudomonas acidoverans CCM.283; test: MIC, strain 24; conditions: CCM.283, 24 h
Procedure: as §1, §2

[25] = tested on: Proteus vulgaris CCM.1799.; test: MIC, strain 25; conditions: 24 h
Procedure: as §1, §2

[26] = tested on: Shigella sonnei CCM.1373.; test: MIC, strain 26; conditions: 24 h
Procedure: (§3) The table contains the MIC values (/μg/ml) measured on human pathogenic polyresistant strains.
as §1, §2

[27] = tested on: Salmonella typhimurium CCM.5445.; test: MIC, strain 27; conditions: Salmonella enterica, 24 h
Procedure: as §3, §1, §2

[28] = tested on: Escherichia coli DSM.30038.; test: MIC, strain 28; conditions: 24 h
Procedure: as §3, §1, §2

CCCCC1C(=O)OC(C(C)C(O)CCCNC(=N)N)C(C)C=C(C)CCCCC(O)CC(O)CC(O)CC(O)CC(O)C(O)C=C(C)C(O)CCCC(O)CCCC(O)CCC(C)C1O (stereo not shown) [C1, oxypricin]
MIC ([1]; strain 1, Table O, 24 hours): 0.075 µg/mL (≈ 0.0793 µM) | MIC ([1]; strain 1, Tables I-XIII, 25 hours): 0.075 µg/mL (≈ 0.0793 µM) | MIC ([2]; Staphylococcus aureus, DSM.20231, 24 h, strain 2, Table O, 24 hours, read-out: MIC): 0.05 µg/mL (≈ 0.0528 µM) | MIC ([2]; Staphylococcus aureus, DSM.20231, 25 h, strain 2, Tables I-XIII, 25 hours, read-out: MIC): 0.05 µg/mL (≈ 0.0528 µM) | MIC ([2]; strain 2, Tables I-XIII, 25 hours): 0.1 µg/mL (≈ 0.106 µM) | MIC ([3]; strain 3, Table O, 24 hours): 0.05 µg/mL (≈ 0.0528 µM) | MIC ([3]; strain 3, Tables I-XIII, 25 hours): 0.05 µg/mL (≈ 0.0528 µM) | MIC ([4]; strain 4, Table O, 24 hours): 0.05 µg/mL (≈ 0.0528 µM) | MIC ([4]; strain 4, Tables I-XIII, 25 hours): 0.05 µg/mL (≈ 0.0528 µM) | MIC ([5]; CCM.2514, strain 5, Table O, 24 hours): 0.05 µg/mL (≈ 0.0528 µM) | MIC ([5]; CCM.2514, strain 5, Tables I-XIII, 25 hours): 0.05 µg/mL (≈ 0.0528 µM) | MIC ([6]; strain 6, Table O, 24 hours): 0.025 µg/mL (≈ 0.0264 µM) | MIC ([6]; strain 6, Tables I-XIII, 25 hours): 0.025 µg/mL (≈ 0.0264 µM) | MIC ([7]; CCM.2271, strain 7, Table O, 24 hours): 0.025 µg/mL (≈ 0.0264 µM) | MIC ([7]; CCM.2271, strain 7, Tables I-XIII, 25 hours): 0.025 µg/mL (≈ 0.0264 µM) | MIC ([8]; strain 8, Table O, 24 hours): 0.05 µg/mL (≈ 0.0528 µM) | MIC ([8]; strain 8, Tables I-XIII, 25 hours): 0.05 µg/mL (≈ 0.0528 µM) | MIC ([9]; strain 9, Table O, 24 hours): 0.75 µg/mL (≈ 0.793 µM) | MIC ([9]; strain 9, Tables I-XIII, 25 hours): 0.75 µg/mL (≈ 0.793 µM) | MIC ([10]; strain 10, Table O, 24 hours): 0.075 µg/mL (≈ 0.0793 µM) | MIC ([10]; strain 10, Tables I-XIII, 25 hours): 0.075 µg/mL (≈ 0.0793 µM) | MIC ([11]; Streptococcus agalactiae, CCM.5534., 24 h, strain 11, Table O, 24 hours, read-out: MIC): 0.25 µg/mL (≈ 0.264 µM) | MIC ([11]; Streptococcus agalactiae, CCM.5534., 25 h, strain 11, Tables I-XIII, 25 hours, read-out: MIC): 0.25 µg/mL (≈ 0.264 µM) | MIC ([11]; strain 11, Tables I-XIII, 25 hours): 0.2 µg/mL (≈ 0.211 µM) | MIC ([12]; ATTC.9926, 24 h, strain 12, Table O, 24 hours): 0.5 µg/mL (≈ 0.528 µM) | MIC ([12]; ATTC.9926, 25 h, strain 12, Tables I-XIII, 25 hours): 0.5 µg/mL (≈ 0.528 µM) | MIC ([13]; 24 h, strain 13, Table O, 24 hours): 0.025 µg/mL (≈ 0.0264 µM) | MIC ([13]; 25 h, strain 13, Tables I-XIII, 25 hours): 0.025 µg/mL (≈ 0.0264 µM) | MIC ([14]; 24 h, strain 14, Table O, 24 hours): 0.025 µg/mL (≈ 0.0264 µM) | MIC ([14]; 25 h, strain 14, Tables I-XIII, 25 hours): 0.025 µg/mL (≈ 0.0264 µM) | MIC ([15]; strain 15, Table O, 24 hours): 0.025 µg/mL (≈ 0.0264 µM) | MIC ([15]; strain 15, Tables I-XIII, 25 hours): 0.025 µg/mL (≈ 0.0264 µM) | MIC ([16]; strain 16, Table O, 24 hours): 0.025 µg/mL (≈ 0.0264 µM) | MIC ([16]; strain 16, Tables I-XIII, 25 hours): 0.025 µg/mL (≈ 0.0264 µM) | MIC [17]: 0.05 µg/mL (≈ 0.0528 µM) | MIC ([18]; strain 18, Table O, 24 hours): 0.075 µg/mL (≈ 0.0793 µM) | MIC ([18]; strain 18, Tables I-XIII, 25 hours): 0.075 µg/mL (≈ 0.0793 µM) | MIC ([19]; strain 19, Table O, 24 hours): 0.01 µg/mL (≈ 0.0106 µM) | MIC ([19]; strain 19, Tables I-XIII, 25 hours): 0.01 µg/mL (≈ 0.0106 µM) | MIC ([20]; strain 20, Table O, 24 hours): 0.01 µg/mL (≈ 0.0106 µM) | MIC ([20]; strain 20, Tables I-XIII, 25 hours): 0.01 µg/mL (≈ 0.0106 µM) | MIC [21]: 0.01 µg/mL (≈ 0.0106 µM) | MIC [22]: 25 µg/mL (≈ 26.4 µM) | MIC [23]: 25 µg/mL (≈ 26.4 µM) | MIC [24]: 25 µg/mL (≈ 26.4 µM) | MIC [25]: 50 µg/mL (≈ 52.8 µM) | MIC [26]: 50 µg/mL (≈ 52.8 µM) | MIC [27]: 50 µg/mL (≈ 52.8 µM) | MIC [28]: 50 µg/mL (≈ 52.8 µM)
